Results taken from US20240255509A1, “COMPOSITIONS AND METHODS RELATED TO K180 DIMETHYLATED H1.0 PROTEIN” (Aelan Cell Technologies, Inc., priority 2016, published 2024).

Legend:
[1] = system: chromatin-bound H1.0K180me2 and γH2A.X; test: Western blot of chromatin-bound H1.0K180me2 and γH2A.X upon bleomycin with PARP-1 inhibition; type: cell-based, human; conditions: 1 μM for 24 hours, bleomycin treatment
Excerpt: (§1) Material for western blot analysis (cultured cells or tissue) was lysed in ice-cold RIPA lysis buffer (Thermo Scientific 89900) and sonicated using a Covaris S2 sonicator (10% duty cycle, Intensity 5, Bursts per minute 100, 120 seconds). Total protein concentration in each sample was quantified using Quick Start Bradford 1× Dye Reagent (BioRad, 5000205) following manufacturer's protocol. Samples were then mixed with NUPAGE LDS sample loading buffer (ThermoFisher, NP0007) and NUPAGE sample reducing buffer (ThermoFisher, NP0004), and heat denatured at 70° C. for 10 minutes. Proteins were separated on 4-12% precast polyacrylamide gels (ThermoFisher, NP0321) by electrophoresis and transferred to 0.45 μm nitrocellulose membrane. […] Proteins were detected with HRP secondary antibodies listed above for 1 hour at RT followed by ECL Western Blotting Substrate (ThermoFisher, 32106) using manufacturer's instructions. […]
(§2) To further assess if H1.0K180 methylation is dependent on the DNA damage repair pathway protein PARP-1 activity, western blot analysis was performed according to methods described in Example 1, to examine chromatin-bound H1.0K180me2 and γH2A.X upon treatment with bleomycin. […] Thus it was determined that H1.0K180 methylation is independent of DNA damage repair pathway protein PARP-1 activity

PARP-1 = molecular target: T1, PARP-1 (Homo sapiens, UniProt P09874); test: Western blot of PARP-1 inhibitor activity in whole cell lysates (poly-(ADP)-ribose levels); type: cell-based; conditions: 1 μM for 24 hours
T1 construct: endogenous in cells; host or cells: hADSCs (inferred)
T1 sequence (P09874 whole entry): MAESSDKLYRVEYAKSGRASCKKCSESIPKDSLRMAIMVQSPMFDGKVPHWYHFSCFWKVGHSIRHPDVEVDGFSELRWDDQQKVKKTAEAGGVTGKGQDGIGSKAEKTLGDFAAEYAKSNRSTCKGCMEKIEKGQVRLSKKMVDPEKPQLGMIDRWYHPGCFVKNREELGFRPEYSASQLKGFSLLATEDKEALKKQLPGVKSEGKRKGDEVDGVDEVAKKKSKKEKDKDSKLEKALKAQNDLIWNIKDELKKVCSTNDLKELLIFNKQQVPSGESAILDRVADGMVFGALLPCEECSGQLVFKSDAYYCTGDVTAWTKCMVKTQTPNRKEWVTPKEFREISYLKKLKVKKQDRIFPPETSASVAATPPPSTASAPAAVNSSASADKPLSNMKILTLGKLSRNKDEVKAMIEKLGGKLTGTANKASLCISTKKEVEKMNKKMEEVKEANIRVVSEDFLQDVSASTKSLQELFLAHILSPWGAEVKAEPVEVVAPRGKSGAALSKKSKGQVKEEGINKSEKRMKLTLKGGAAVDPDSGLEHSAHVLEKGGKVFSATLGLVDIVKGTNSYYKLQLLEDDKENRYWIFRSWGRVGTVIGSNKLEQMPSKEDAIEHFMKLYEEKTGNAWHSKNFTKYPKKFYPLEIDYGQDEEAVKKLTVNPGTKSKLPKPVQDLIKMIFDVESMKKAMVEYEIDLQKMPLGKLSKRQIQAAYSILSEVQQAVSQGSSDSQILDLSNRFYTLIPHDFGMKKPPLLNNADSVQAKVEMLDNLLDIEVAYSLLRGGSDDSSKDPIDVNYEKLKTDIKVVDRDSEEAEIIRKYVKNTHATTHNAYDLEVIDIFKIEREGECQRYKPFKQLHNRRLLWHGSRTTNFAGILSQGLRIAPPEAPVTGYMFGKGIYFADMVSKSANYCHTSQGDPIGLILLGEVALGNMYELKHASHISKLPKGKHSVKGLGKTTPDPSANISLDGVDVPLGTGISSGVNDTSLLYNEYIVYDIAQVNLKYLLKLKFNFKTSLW
Excerpt: as §1, §2

H1.0K180me2 [2] = test: Western blot for H1.0K180me2 in SR hADSCs treated with bleomycin after rapamycin or everolimus pretreatment; type: cell-based, human; conditions: 500 nM, 24 hours pretreatment, then bleomycin 2 hours
Excerpt: as §1
To test if rapamycin derivatives may block H1.0K180me2 appearance upon DNA damage, SR hADSCs were treated with bleomycin for 2 hours with or without pretreatment with rapamycin or everolimus (a derivative of rapamycin) for 24 hours. Cells were then lysed and analyzed be western blot for H1.0K180me2, γH2A.X and β-Actin, according to methods described in Example 1.

H1.0K180me2 [3] = test: H1.0K180me2 on chromatin (western blot) and localization in hADSCs after bleomycin; type: cell-based, human
Description: (§3) For replicative senescence, hADSCs were grown in culture until reaching replicative exhaustion (PD 41-46). For acute DNA damage conditions, SR hADSCs (PD 4-10) were treated with 50 μg/ml bleomycin sulfate (Cayman Chemical, 13877) in growth media for 2 hours. For genotoxic stress-induced senescence, SR hADSCs (PD 4-10) were treated with 50 μg/ml bleomycin sulfate (Cayman Chemical, 13877) in growth media for 2 hours then washed with PBS and given fresh growth media without bleomycin. Cells were then grown for 3 days before collection.
as §1, with “minutes.” for “minutes. Proteins were separated on 4-12% precast polyacrylamide gels (ThermoFisher, NP0321) by electrophoresis and transferred to 0.45 μm nitrocellulose membrane.”

secreted H1.0K180me2 = test: Slot blot of conditioned medium of hADSCs after bleomycin (secretion); type: cell-based, human
Description: 0.5 μl of serum sample or known amounts of synthesized peptide were diluted in 200 μl TBS. Samples were then heat denatured at 70° C. for 10 minutes before being transferred to nitrocellulose membrane using a vacuum manifold slot blot apparatus (BioRad, 1706542). The membrane was blocked with 5% non-fat milk in PBS-T for 30 minutes at RT then immunoblotted with the above primary antibodies at 4° C. overnight. Proteins were detected with HRP secondary antibodies listed above for 1 hour at RT followed by ECL Western Blotting Substrate (ThermoFisher, 32106) using manufacturer's instructions. All washes between steps were with PBS-T. Membranes were imaged with Omega LUM-C imaging system (Gel Company). Slot blot bands for each sample were then quantified using ImageJ.
This signifies secretion out of the cells. An increase in DNA fragmentation factor (DFFB/DFF40/CAD) secretion upon GSI-SEN was seen, in a similar manner to H1.0K180me2 starting 48 hours after treatment (FIG. 7B).
SR hADSCs, hADSCs treated with bleomycin for 2 hours (acute DNA damage) and hADSCs treated with bleomycin and allowed to senesce for 3 days (genotoxic stress induced senescence) were lysed and fractionated into soluble and chromatin bound fractions. These fractions were then subjected to LC-MS/MS analysis. Peptide expression levels were taken as the total area under the LC-MS/MS relative intensity curve, and individual peptides were unambiguously assigned to proteins using Pinpoint software, version 1.4 (Thermo Scientific). The areas of all peptides assigned to an individual protein were summed to yield protein expression levels, which were normalized against the total protein library size for each sample. For each cellular fraction, H1.0 peptide abundance is represented as a percentage of total H1.0 peptides observed in each condition. Normalized absolute values of H1.0 peptide levels in each fraction were also shown. […] Culture media from SR hADSCs treated with bleomycin was collected for slot blot analysis with α-H1.0 and α-H1.0K180me2 antibodies to assess secretion of H1.0 to the extracellular matrix (ECM). The experiment was carried out according to methods described in Example 1.

histone H1.0 mRNA = test: RT-PCR analysis of histone H1.0 mRNA expression in hADSCs after bleomycin; type: cell-based, human
Description: as §3
RT-PCR analysis of histone H1.0 mRNA expression was performed on total RNA derived from self-replicating hADSCs, hADSCs treated with bleomycin for 2 hours (acute DNA damage) and hADSCs treated with bleomycin and allowed to senesce for 3 days (genotoxic stress-induced senescence). H1.0 mRNA expression increases over 2-fold upon acute DNA damage, and remains elevated (1.5-fold over SR) upon genotoxic stress induced senescence.

H1.0K180me2 [4] = test: Western blot for H1.0K180me2 in SR hADSCs after bleomycin or temozolomide; type: cell-based, human; conditions: SR hADSCs treated for 2 hours, 50 μg/ml
Excerpt: Material for western blot analysis (cultured cells or tissue) was lysed in ice-cold RIPA lysis buffer (Thermo Scientific 89900) and sonicated using a Covaris S2 sonicator (10% duty cycle, Intensity 5, Bursts per minute 100, 120 seconds). Total protein concentration in each sample was quantified using Quick Start Bradford 1× Dye Reagent (BioRad, 5000205) following manufacturer's protocol. Samples were then mixed with NUPAGE LDS sample loading buffer (ThermoFisher, NP0007) and NUPAGE sample reducing buffer (ThermoFisher, NP0004), and heat denatured at 70° C. for 10 minutes. Proteins were separated on 4-12% precast polyacrylamide gels (ThermoFisher, NP0321) by electrophoresis and transferred to 0.45 μm nitrocellulose membrane. The membrane was blocked with 5% non-fat milk in PBS-T for 30 minutes at RT then immunoblotted with the above primary antibodies at 4° C. overnight. Proteins were detected with HRP secondary antibodies listed above for 1 hour at RT followed by ECL Western Blotting Substrate (ThermoFisher, 32106) using manufacturer's instructions. All washes between steps were with PBS-T. Membranes were imaged with Omega LUM-C imaging system (Gel Company). […]
SR hADSCs were treated for 2 hours with bleomycin or temozolomide, a compound that triggers base excision repair pathways. Cells were then lysed and analyzed be western blot for H1.0K180me2, γH2A.X and β-Actin.

Chromatin bound H1.0 = test: LC-MS/MS of soluble and chromatin bound fractions of hADSCs after bleomycin; type: cell-based, human
Description: as §3
SR hADSCs, hADSCs treated with bleomycin for 2 hours (acute DNA damage) and hADSCs treated with bleomycin and allowed to senesce for 3 days (genotoxic stress induced senescence) were lysed and fractionated into soluble and chromatin bound fractions. These fractions were then subjected to LC-MS/MS analysis. Peptide expression levels were taken as the total area under the LC-MS/MS relative intensity curve, and individual peptides were unambiguously assigned to proteins using Pinpoint software, version 1.4 (Thermo Scientific). The areas of all peptides assigned to an individual protein were summed to yield protein expression levels, which were normalized against the total protein library size for each sample. For each cellular fraction, H1.0 peptide abundance is represented as a percentage of total H1.0 peptides observed in each condition. […]

[5] = acute DNA damage: bleomycin for 2 hours
[6] = genotoxic stress induced senescence: bleomycin, then 3 days

## CN(C)Cc1ccc(-c2nc3cccc4c3n2CCNC4=O)cc1 [AG14361]
[1]
  accumulation of chromatin-bound H1.0K180me2: increased accumulation
  accumulation of chromatin-bound γH2A.X: increased accumulation
PARP-1
  poly-(ADP)-ribose (PAR) levels increased upon bleomycin treatment: abolished

## CO[C@H]1C[C@@H]2CC[C@@H](C)[C@@](O)(O2)C(=O)C(=O)N2CCCC[C@H]2C(=O)O[C@H]([C@H](C)C[C@@H]2CC[C@@H](OCCO)[C@H](OC)C2)CC(=O)[C@H](C)/C=C(\C)[C@@H](O)[C@@H](OC)C(=O)[C@H](C)C[C@H](C)/C=C/C=C/C=C/1C [everolimus, Everolimus]
H1.0K180me2 [2]
  appearance of H1.0K180me2 upon bleomycin treatment: reduced the appearance of H1.0K180me2

## bleomycin sulfate
H1.0K180me2 [3]; SR hADSCs treated with bleomycin
  localization of H1.0K180me2: localized to the cytoplasm
H1.0K180me2 [3]; bleomycin for 2 hours, chromatin bound fraction, western blot
  methylation of H1.0K180 on chromatin: methylation of H1.0K180 on the chromatin
Secreted H1.0K180me2; GSI-SEN, starting 48 hours after treatment
  DNA fragmentation factor (DFFB/DFF40/CAD) secretion: increase
Secreted H1.0K180me2; acute DNA damage
  secretion of H1.0K180me2 and DFFB upon onset of acute DNA damage (ADD): None of the protein is secreted in measurable quantities
Secreted H1.0K180me2; after 24 hours of bleomycin treatment
  secreted H1.0K180me2 in cell culture media: readily detected
Secreted H1.0K180me2; time course after bleomycin
  time of maximal H1.0K180me2 secretion into conditioned medium: ≤ 48 h
Histone H1.0 mRNA; [5]
  H1.0 mRNA expression increase over SR: over 2 fold
Histone H1.0 mRNA; [6]
  H1.0 mRNA expression increase over SR: 1.5 fold
H1.0K180me2 [4]
  induction of H1.0K180me2 methylation: capable of inducing H1.0K180me2 methylation
Chromatin bound H1.0; [5]
  Chromatin bound H1.0, % of total H1.0 peptides: ~60%
Chromatin bound H1.0; [6]
  Chromatin bound H1.0, % of total H1.0 peptides: ~30%
